# Assay results reported in patent US9637469B2, “Pyridine derivative” (Teijin Pharma Limited, priority 2012, dated 2017).
# Experiments:
# human URAT1 = molecular target: T1, human URAT1 (Homo sapiens, UniProt Q96S37); assay: Test for inhibition of uric acid transport using human URAT1-expressing cells;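 further: three stars up to 0.2 µM two stars 0.2-2 µM one star 2-20 µM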; format: cell-based; details: HEK 293 cells expressing human URAT1; 14C-labeled uric acid 25 μM; uptake 37° C. for 5 min
# T1 construct: Full-length cDNA of human URAT1 (hURAT1)
# T1 sequence (Q96S37 1-553): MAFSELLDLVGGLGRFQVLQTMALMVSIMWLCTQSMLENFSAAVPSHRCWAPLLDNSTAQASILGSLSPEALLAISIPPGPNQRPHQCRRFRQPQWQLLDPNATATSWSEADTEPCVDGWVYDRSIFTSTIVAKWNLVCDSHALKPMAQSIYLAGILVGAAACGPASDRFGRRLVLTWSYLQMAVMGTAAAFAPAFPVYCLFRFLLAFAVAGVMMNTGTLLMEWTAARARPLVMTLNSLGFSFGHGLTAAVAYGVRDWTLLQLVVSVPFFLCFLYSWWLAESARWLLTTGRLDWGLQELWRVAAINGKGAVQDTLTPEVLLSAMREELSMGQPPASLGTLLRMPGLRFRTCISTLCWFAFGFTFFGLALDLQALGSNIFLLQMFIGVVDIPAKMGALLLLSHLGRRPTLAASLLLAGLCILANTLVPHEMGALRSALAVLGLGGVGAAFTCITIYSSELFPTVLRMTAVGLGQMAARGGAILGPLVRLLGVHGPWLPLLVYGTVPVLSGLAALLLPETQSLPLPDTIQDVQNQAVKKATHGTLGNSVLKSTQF
# Outline: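 IC50 values reflect inhibition of ¹⁴C-uric acid uptake (25 μM final, 5 min, 37 °C) by compound. Cells were HEK293 stably expressing full-length human URAT1, preincubated in Na-gluconate-substituted HBSS. Radioactivity in lysates was expressed relative to DMSO control as 100%.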
# Cebus apella = assay: Test for drug efficacy in Cebus apella (uric acid excretion rate); format: in vivo; details: 3 mg/kg to 30 mg/kg in 0.5% methylcellulose into stomach via the nasal cavity, up to 24 hours
# Experimental: A test compound (3 mg/kg to 30 mg/kg) prepared by suspending in a 0.5% methylcellulose solution was administered to Cebus apella into stomach via the nasal cavity using a disposable catheter and a syringe barrel. Blood samples were taken before administration and 30 minutes, 1 hour, 2 hours, 4 hours, 8 hours, 12 hours, and 24 hours after administration; and urine samples were collected for the time intervals of immediately to 4 hours after administration, from 4 hours to 8 hours after administration, from 8 hours to 16 hours after administration, and from 16 hours to 24 hours after administration. Concentrations of uric acid and creatinine in the blood and urine samples collected were measured by an automatic analyzer (JEOL Ltd.). Uric acid and creatine were measured using L-type Wako UA.F (Wako Pure Chemicals Industries, Ltd.) and L-type Creatine F (Wako Pure Chemicals Industries, Ltd.) respectively. Uric acid clearance was calculated from the uric acid concentrations in blood and urine and, similarly, creatinine clearance was calculated from the creatinine concentrations.
Compound,Inhibitory Activity (IC50 of uric acid transport inhibition) (human URAT1),uricosuric effect (uric acid excretion rate) (Cebus apella)
"CC(C)c1nc(-c2cccnc2)n(Cc2cc(Cl)ccc2Cl)c1C(=O)O [Compound A26, 1-(2,5-dichlorobenzyl)-4-isopropyl-2-(pyridin-3-yl)-1H-imidazole-5-carboxylic acid]",* * *,excellent uricosuric effect was confirmed
"Cc1nc(-c2cccnc2)n(Cc2cccc3ccsc23)c1C(=O)O [Compound A81, 1-(benzo[b]thiophen-7-ylmethyl)-4-methyl-2-(pyridin-3-yl)-1H-imidazole-5-carboxylic acid]",* *,excellent uricosuric effect was confirmed
"Cc1nc(-c2cncc(F)c2)n(Cc2cccc3ccccc23)c1C(=O)O [Compound A119, 2-(5-fluoropyridin-3-yl)-4-methyl-1-(naphthalen-1-ylmethyl)-1H-imidazole-5-carboxylic acid]",* *,excellent uricosuric effect was confirmed
"Cc1nc(-c2cncc(Cl)c2)n(Cc2cccc3ccccc23)c1C(=O)O [Compound A121, 2-(5-chloropyridin-3-yl)-4-methyl-1-(naphthalen-1-ylmethyl)-1H-imidazole-5-carboxylic acid]",* *,excellent uricosuric effect was confirmed
"Cc1nc(-c2cncc(F)c2)n(Cc2cc(Cl)ccc2Cl)c1C(=O)O [Compound A134, 1-(2,5-dichlorobenzyl)-2-(5-fluoropyridin-3-yl)-4-methyl-1H-imidazole-5-carboxylic acid]",* * *,excellent uricosuric effect was confirmed
"Cc1nc(-c2cncc(Cl)c2)n(Cc2cc(Cl)ccc2Cl)c1C(=O)O [Compound A135, 2-(5-chloropyridin-3-yl)-1-(2,5-dichlorobenzyl)-4-methyl-1H-imidazole-5-carboxylic acid]",* * *,excellent uricosuric effect was confirmed
"O=C(O)c1c(C(F)(F)F)nc(-c2cncc(Cl)c2)n1Cc1cc(Cl)ccc1Cl [Compound A137, 2-(5-chloropyridin-3-yl)-1-(2,5-dichlorobenzyl)-4-(trifluoromethyl)-1H-imidazole-5-carboxylic acid]",* * *,excellent uricosuric effect was confirmed
"Cc1nc(-c2cncc(C(F)(F)F)c2)n(Cc2cc(Cl)ccc2Cl)c1C(=O)O [Compound A139, 1-(2,5-dichlorobenzyl)-4-methyl-2-(5-(trifluoromethyl)pyridin-3-yl)-1H-imidazole-5-carboxylic acid]",* * *,excellent uricosuric effect was confirmed
"O=C(O)c1c(C2CC2)nc(-c2cncc(Cl)c2)n1Cc1cc(Cl)ccc1Cl [Compound A147, 2-(5-chloropyridin-3-yl)-4-cyclopropyl-1-(2,5-dichlorobenzyl)-1H-imidazole-5-carboxylic acid]",* * *,excellent uricosuric effect was confirmed
"Cc1cncc(-c2nc(C)c(C(=O)O)n2Cc2cc(Cl)ccc2Cl)c1 [Compound A156, 1-(2,5-dichlorobenzyl)-4-methyl-2-(5-methylpyridin-3-yl)-1H-imidazole-5-carboxylic acid]",* * *,excellent uricosuric effect was confirmed
"O=C(O)c1cnc(-c2cncc(Cl)c2)n1Cc1cc(Cl)ccc1Cl [Compound A169, 2-(5-chloropyridin-3-yl)-1-(2,5-dichlorobenzyl)-1H-imidazole-5-carboxylic acid]",* * *,excellent uricosuric effect was confirmed
"Cc1nc(-c2cncc(Cl)c2)n(Cc2cccc3ccsc23)c1C(=O)O [Compound A233, 1-(benzo[b]thiophen-7-ylmethyl)-2-(5-chloropyridin-3-yl)-4-methyl-1H-imidazole-5-carboxylic acid]",* * *,excellent uricosuric effect was confirmed
"O=C(O)c1ccc(-c2cccnc2)n1Cc1cccc2ccccc12 [Compound B1, 1-(naphthalen-1-ylmethyl)-2-(pyridin-3-yl)-1H-pyrrole-5-carboxylic acid]",* * *,excellent uricosuric effect was confirmed
"O=C(O)c1ccc(-c2cccnc2)n1Cc1cc(Cl)ccc1Cl [Compound B11, 1-(2,5-dichlorobenzyl)-2-(pyridin-3-yl)-1H-pyrrole-5-carboxylic acid]",* * *,excellent uricosuric effect was confirmed
